Source: patent US9765105B2, “Macrolide compound” (Pulike Biological Engineering, Inc., priority 2013, dated 2017)

What was measured:
Assay in all cases: in vitro susceptibility, MIC by mini broth dilution
Assay type in all cases: cell-based
[1] = test system: Staphylococcus aureus CVCC26003; settings: strain CVCC26003
Method: (§1) in vitro tests of susceptibility of the compounds according to the present disclosure against bacterial strains commonly used in laboratories. In accordance with the Performance Standards for Antimicrobial Disk Susceptibility Tests: Approved Standard published by the US National Committee for Clinical Laboratory Standards, the antibacterial activities of compounds prepared according to examples 5 to 187 were tested. The MICs (minimum inhibitory concentration) of the medicaments prepared according to the examples on the following bacterial strains were measured through mini broth dilution technique. Staphylococcus aureus CVCC26003, Streptococcus equines CVCC556. Actinobacillus pleuropneumoniae CVCC262, Haemophilus parasuis, and Pasteurella multocida CVCC399, which were purchased from the Control Institute of Veterinary Bioproducts and Pharmaceuticals, China. 4.1.1 Culture Medium for Staphylococcus aureus CVCC26003 Liquid culture medium: CAMHB. […] Solid culture medium: NINA prepared according to the specification of the final product. The strains were taken out of a refrigerator at −20° C. to be revived, and were spreaded by streaking on the solid culture medium with an inoculating loop. The inoculated culture medium was cultured at 35° C. in a constant temperature incubator for 20 h. […] were selected from a well-grown culture plate and streaked on the solid culture medium. The inoculated culture medium was cultured at 35° C. in the constant temperature incubator for 20 h. […] A 96-well plate was used, and 100 μl of DMSO was added into each of wells 2 to 11, and 200 μl of ready-prepared medicament solution was added into the 1st well, 100 μl of the medicament solution was extracted from the 1st well and added into the 2nd well. Double dilution was performed until the 11th well, thereby forming 11 gradients. In this case, compound of parent plate was prepared. 3 μl of double diluted medicament solution was extracted with a 12-channel pipettor and added into wells 1-11 of a new disposable 96-well culture plate. The 12th well thereof is a control well. For each medicament, there are two adjacent rows which are parallel. The transferred compound plate was reserved for later use. […] The dilution ratio was recorded, and the bacterial liquid for the tests was diluted according to the recorded dilution ratio. Subsequently, the bacterial suspension and the liquid culture medium were diluted in the proportion of 1:200. The diluted solution was reserved for later use.

[2] = test system: Actinobacillus pleuropneumoniae CVCC262; settings: strain CVCC262
Method: as §1, with “China. 4.1.2” for “China. 4.1.1”, “Culture Media” for “Culture Medium”, “for the Rest Four Bacterial Strains.” for “for Staphylococcus aureus CVCC26003”, “medium:” for “medium: CAMHB.”, “medium: […]” for “medium: NINA prepared according to the specification of the final product.”

[3] = test system: Haemophilus parasuis
Method: as §1, with “China. 4.1.2” for “China. 4.1.1”, “Culture Media” for “Culture Medium”, “for the Rest Four Bacterial Strains.” for “for Staphylococcus aureus CVCC26003”, “medium:” for “medium: CAMHB.”, “medium: […]” for “medium: NINA prepared according to the specification of the final product.”

[4] = test system: Pasteurella multocida CVCC399; settings: strain CVCC399
Method: as §1, with “China. 4.1.2” for “China. 4.1.1”, “Culture Media” for “Culture Medium”, “for the Rest Four Bacterial Strains.” for “for Staphylococcus aureus CVCC26003”, “medium:” for “medium: CAMHB.”, “medium: […]” for “medium: NINA prepared according to the specification of the final product.”

[5] = test system: Streptococcus equines CVCC556; settings: strain CVCC556
Method: as §1, with “China. 4.1.2” for “China. 4.1.1”, “Culture Media” for “Culture Medium”, “for the Rest Four Bacterial Strains.” for “for Staphylococcus aureus CVCC26003”, “medium:” for “medium: CAMHB.”, “medium: […]” for “medium: NINA prepared according to the specification of the final product.”

Row | Structure (SMILES) | MIC values, Staphylococcus aureus CVCC26003 [1] | MIC values, Actinobacillus pleuropneumoniae CVCC262 [2] [ug/mi] | MIC values, Haemophilus parasuis [3] | MIC values, Pasteurella multocida CVCC399 [4] | MIC values, Streptococcus equines CVCC556 [5]
1 | CC[C@H]1OC(=O)[C@H](C)[C@@H](O[C@H]2C[C@@](C)(OC)[C@](O)(CNCCCNCCc3ccc(S(C)(=O)=O)cc3)[C@H](C)O2)[C@H](C)[C@@H](O[C@@H]2O[C@H](C)C[C@H](N(C)C)[C@H]2O)[C@](C)(O)C[C@@H](C)NC[C@H](C)[C@@H](O)[C@]1(C)O [Syzx-61, (2R,3S,4R,5S,8R,10R,11R,12S,13S,14R)-13-[(2,6-dideoxy-3-C-methyl-3-O-methyl-4-C-[[(4-mesylphenylethylamino)propylamino]-methyl]-α-L-ribopyranosyl)oxy]-2-ethyl-3,4,10-trihydroxy-3,5,8,10,12,14-hexamethyl-11-[[3,4,6-trideoxy-3-(dimethylamino)-β-D-xylo-hexopyranosy]oxy]-1-oxa-7-azacyclopentadecan-15-one] | ≦0.25 ug/mi | 32 | ≦0.25 ug/mi | 1 ug/mi | 0.5 ug/mi
2 | CCCN1C[C@H](C)[C@@H](O)[C@](C)(O)[C@@H](CC)OC(=O)[C@H](C)[C@@H](O[C@H]2C[C@@](C)(OC)[C@](O)(CNC(C)(C)C)[C@H](C)O2)[C@H](C)[C@@H](O[C@@H]2O[C@H](C)C[C@H](N(C)C)[C@H]2O)[C@](C)(O)C[C@H]1C [syzx-1 14] | 0.25 ug/mi | 0.25 | 0.25 ug/mi | 0.25 ug/mi | 0.25 ug/mi
3 | CCC1OC(=O)C(C)C(OC2CC(C)(OC)C(O)(CNc3ccccc3)C(C)O2)C(C)C(OC2OC(C)CC(N(C)C)C2O)C(C)(O)CC(C)NCC(C)C(O)C1(C)O [syzx-4, (2R,3S,4R,5S,8R,10R,11R,12S,13S,14R)-13-[(2,6-dideoxy-3-C-methyl-3-O-methyl-4-C-[(phenylamino)methyl]-α-L-ribopyranosyl)oxy]-2-ethyl-3,4,10-trihydroxy-3,5,8,10,12,14-hexamethyl-11-[[3,4,6-trideoxy-3-(dimethylamino)-β-D-xylo-hexopyranosy]oxy]-1-oxa-7-azacyclopentadecan-15-one] | 1 ug/mi | 32 | 0.5 ug/mi | 1 ug/mi | ≦0.25 ug/mi
4 | CC[C@H]1OC(=O)[C@H](C)[C@@H](O[C@H]2C[C@@](C)(OC)[C@](O)(Cn3cccc3)[C@H](C)O2)[C@H](C)[C@@H](O[C@@H]2O[C@H](C)C[C@H](N(C)C)[C@H]2O)[C@](C)(O)C[C@@H](C)NC[C@H](C)[C@@H](O)[C@]1(C)O [syzx-7, (2R,3S,4R,5S,8R,10R,11R,12S,13S,14R)-13-[(2,6-dideoxy-3-C-methyl-3-O-methyl-4-C-[(pyrryl)methyl]-α-L-ribopyranosyl)oxy]-2-ethyl-3,4,10-trihydroxy-3,5,8,10,12,14-hexamethyl-11-[[3,4,6-trideoxy-3-(dimethylamino)-β-D-xylo-hexopyranosy]oxy]-1-oxa-7-azacyclopentadecan-15-one] | ≦0.25 ug/mi | 2 | ≦0.25 ug/mi | 0.25 ug/mi | ≦0.25 ug/mi
5 | CC[C@H]1OC(=O)[C@H](C)[C@@H](O[C@H]2C[C@@](C)(OC)[C@](O)(CNCc3ccc(F)cc3)[C@H](C)O2)[C@H](C)[C@@H](O[C@@H]2O[C@H](C)C[C@H](N(C)C)[C@H]2O)[C@](C)(O)C[C@@H](C)NC[C@H](C)[C@@H](O)[C@]1(C)O [syzx-8, (2R,3S,4R,5S,8R,10R,11R,12S,13S,14R)-13-[(2,6-dideoxy-3-C-methyl-3-O-methyl-4-C-[(4-fluorobenzylamino)methyl]-α-L-ribopyranosyl)oxy]-2-ethyl-3,4,10-trihydroxy-3,5,8,10,12,14-hexamethyl-11-[[3,4,6-trideoxy-3-(dimethylamino)-β-D-xylo-hexopyranosy]oxy]-1-oxa-7-azacyclopentadecan-15-one] | ≦0.25 ug/mi | 0.5 | ≦0.25 ug/mi | 0.25 ug/mi | ≦0.25 ug/mi
6 | CC[C@H]1OC(=O)[C@H](C)[C@@H](O[C@H]2C[C@@](C)(OC)[C@](O)(Cn3ccnc3)[C@H](C)O2)[C@H](C)[C@@H](O[C@@H]2O[C@H](C)C[C@H](N(C)C)[C@H]2O)[C@](C)(O)C[C@@H](C)NC[C@H](C)[C@@H](O)[C@]1(C)O [syzx-9, (2R,3S,4R,5S,8R,10R,11R,12S,13S,14R)-13-[(2,6-dideoxy-3-C-methyl-3-O-methyl-4-C-[(imidazolyl)methyl]-α-L-ribopyranosyl)oxy]-2-ethyl-3,4,10-trihydroxy-3,5,8,10,12,14-hexamethyl-11-[[3,4,6-trideoxy-3-(dimethylamino)-β-D-xylo-hexopyranosy]oxy]-1-oxa-7-azacyclopentadecan-15-one] | ≦0.25 ug/mi | 0.5 | ≦0.25 ug/mi | ≦0.25 ug/mi | ≦0.25 ug/mi
7 | CC[C@H]1OC(=O)[C@H](C)[C@@H](O[C@H]2C[C@@](C)(OC)[C@](O)(CNCc3ccc(OC)cc3)[C@H](C)O2)[C@H](C)[C@@H](O[C@@H]2O[C@H](C)C[C@H](N(C)C)[C@H]2O)[C@](C)(O)C[C@@H](C)NC[C@H](C)[C@@H](O)[C@]1(C)O [syzx-18, (2R,3S,4R,5S,8R,10R,11R,12S,13S,14R)-13-[(2,6-dideoxy-3-C-methyl-3-O-methyl-4-C-[(4-methoxybenzylamino)methyl]-α-L-ribopyranosyl)oxy]-2-ethyl-3,4,10-trihydroxy-3,5,8,10,12,14-hexamethyl-11-[[3,4,6-trideoxy-3-(dimethylamino)-β-D-xylo-hexopyranosy]oxy]-1-oxa-7-azacyclopentadecan-15-one] | 0.5 ug/mi | 16 | 0.5 ug/mi | 2 ug/mi | 
8 | CC[C@H]1OC(=O)[C@H](C)[C@@H](O[C@H]2C[C@@](C)(OC)[C@](O)(CNCc3ccc(Cl)cc3)[C@H](C)O2)[C@H](C)[C@@H](O[C@@H]2O[C@H](C)C[C@H](N(C)C)[C@H]2O)[C@](C)(O)C[C@@H](C)NC[C@H](C)[C@@H](O)[C@]1(C)O [syzx-20, (2R,3S,4R,5S,8R,10R,11R,12S,13S,14R)-13-[(2,6-dideoxy-3-C-methyl-3-O-methyl-4-C-[(4-chlorolbenzylamino)methyl]-α-L-ribopyranosyl)oxy]-2-ethyl-3,4,10-trihydroxy-3,5,8,10,12,14-hexamethyl-11-[[3,4,6-trideoxy-3-(dimethylamino)-β-D-xylo-hexopyranosy]oxy]-1-oxa-7-azacyclopentadecan-15-one] | ≦0.25 ug/mi | 2 | ≦0.25 ug/mi | 0.25 ug/mi | ≦0.25 ug/mi
